Reference: the NIST ThermoML archive (doi:10.1021/je201053v)
± gives the expanded uncertainty stated by the source.

Settings: Liquid; for mass density: 293.15 K, 101.33 kPa, Vibrating tube method

SMILES	mass density	other results
Cc1ccccc1C [1,2-dimethylbenzene]	879.68 ± 0.93 kg/m3	vapor or sublimation pressure (417.58 K): 101.33 ± 1.9 kPa
CCCCO [butan-1-ol]	809.5 ± 0.24 kg/m3	vapor or sublimation pressure (390.85 K): 101.33 ± 1.3 kPa
Cc1cccc(C)c1 [1,3-dimethylbenzene]	864.11 ± 0.91 kg/m3	vapor or sublimation pressure (412.27 K): 101.33 ± 1.4 kPa
Cc1ccc(C)cc1 [1,4-dimethylbenzene]	861.21 ± 0.91 kg/m3	vapor or sublimation pressure (411.51 K): 101.33 ± 1.9 kPa
CCc1ccccc1 [ethylbenzene]	866.54 ± 0.58 kg/m3	vapor or sublimation pressure (409.27 K): 101.33 ± 1.3 kPa
